Reference: patent US12365687B2 (Hoffmann-La Roche Inc., priority 2021, dated 2025)

Assays:
[1] = molecular target: human GABAA α5β2γ1 receptor (Homo sapiens (Human), UniProt P31644+Q8N1C3); assay: Radioligand binding assay for γ1-containing GABAA subtypes, [3H]RO7239181 competition (α5β2γ1)
[2] = molecular target: human GABAA α1β3γ2 receptor (Homo sapiens (Human), UniProt P14867+P18507); assay: Radioligand binding assay for γ2-containing GABAA subtypes, [3H]Flumazenil competition (α1β3γ2); conditions: for γ2/γ1 Selectivity Ratio: Ki α1β3γ2 (nM)/Ki α2β2γ1 (nM); for LogSel: Log[Ki α1β3γ2 (nM)/Ki α2β2γ1 (nM)]
[3] = molecular target: α2β2γ1 GABAA receptor subtype (Homo sapiens (Human), UniProt P47869+Q8N1C3); assay: Two-electrode voltage clamp electrophysiology in Xenopus oocytes expressing GABAA receptors (modulation of GABA EC20 current); assay type: cell-based; conditions: for Efficacy (GABA)%: % modulation of GABA EC20 = 100*(Fold increase-1), α2β2γ1 oocytes, compound at approx. 30-fold Ki; for Fold increase h-GABA-A α2β2γ1 oocyte @ 30-fold Ki: Xenopus oocytes expressing α2β2γ1, compound at approx. 30-fold its Ki α2β2γ1, GABA EC20 current
How it was run: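 Two-electrode voltage clamp at −80 mV, room temperature, 3-5 days after mRNA injection into oocytes. GABA applied at EC20 for 1.5 min, twice, with compound during second application; at least 3 oocytes per concentration. Efficacy = extremum of point-by-point current ratio, expressed as 100×(fold increase−1).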

[4] = molecular target: human GABAA α2β2γ1 receptor (Homo sapiens (Human), UniProt P47869+Q8N1C3); assay: Radioligand binding assay for γ1-containing GABAA subtypes, [3H]RO7239181 competition (α2β2γ1)
[5] = Ki h-GABAA α2β2γ1, [3H]RO7239181 competition binding, human GABAA α2β2γ1
[6] = Ki h-GABAA α2β2γ1, displacement of [3H]RO7239181, membranes of HEK293F cells expressing human receptors, means of two determinations

| Structure (SMILES) | Ki [1] [nM] | Ki [2] [nM] | γ2/γ1 Selectivity Ratio [2] | LogSel [2] | Efficacy (GABA)% [3] [%] | Fold increase h-GABA-A α2β2γ1 oocyte @ 30-fold Ki [3] | Ki [4, 5] [nM] | Ki [4, 6] [nM] |
| --- | --- | --- | --- | --- | --- | --- | --- | --- |
| C[C@@H]1N=C(c2c(F)cccc2F)c2c(ccc(Cl)c2Cl)-n2cc(C#N)nc21 [Example 74, (4S)-7,8-dichloro-6-(2,6-difluorophenyl)-4-methyl-4H-imidazo[1,2-a][1,4]benzodiazepine-2-carbonitrile] | 0.7 | 593 | 61.8 | 1.79 | 75 | 1.75 | 9.6 | 9.6 |
| COC1CN(C(=O)c2cn3c(n2)[C@H](C)N=C(c2ncccc2F)c2c-3ccc(C(F)(F)F)c2Cl)C1 [Example 145, [(4S)-7-chloro-6-(3-fluoro-2-pyridyl)-4-methyl-8-(trifluoromethyl)-4H-imidazo[1,2-a][1,4]benzodiazepin-2-yl]-(3-methoxyazetidin-1-yl)methanone] | 18.4 | 13200 | 141.7 | 2.15 | 168 | 2.68 | 93.1 | 93.1 |
| C[C@@H]1N=C(c2ncccc2F)c2c(ccc(Cl)c2Cl)-n2nc(C(=O)N3CCC3)nc21 [Example 42, azetidin-1-yl-[(4S)-7,8-dichloro-6-(3-fluoro-2-pyridyl)-4-methyl-4H-[1,2,4]triazolo[1,5-a][1,4]benzodiazepin-2-yl]methanone] | 4.24 | 2630 | 52.5 | 1.72 | 114 | 2.14 | 50.1 | 50.1 |
| C[C@@H]1N=C(c2c(F)cccc2F)c2c(ccc(C(F)(F)F)c2Cl)-n2nc(NC(=O)NC3CC3)nc21 [Example 126, 1-[(4S)-7-chloro-6-(2,6-difluorophenyl)-4-methyl-8-(trifluoromethyl)-4H-[1,2,4]triazolo[1,5-a][1,4]benzodiazepin-2-yl]-3-cyclopropyl-urea] | 3.23 | 4600 | 451.4 | 2.65 | 38 | 1.38 | 10.2 | 10.2 |
| C[C@@H]1N=C(c2ncccc2F)c2c(ccc(C(F)(F)F)c2Cl)-n2cc(C(=O)N[C@H]3C[C@@H](O)C3)nc21 [Example 166, (4S)-7-chloro-6-(3-fluoro-2-pyridyl)-N-(cis-3-hydroxycyclobutyl)-4-methyl-8-(trifluoromethyl)-4H-imidazo[1,2-a][1,4]benzodiazepine-2-carboxamide] | 9.14 | 10200 | 234.5 | 2.37 | 184 | 2.84 | 46.5 | 43.4 |
| C[C@@H]1N=C(c2c(F)cccc2F)c2c(ccc(Cl)c2Cl)-n2nc(C(=O)N3CC[C@H](F)C3)nc21 [Example 80, [(4S)-7,8-dichloro-6-(2,6-difluorophenyl)-4-methyl-4H-[1,2,4]triazolo[1,5-a][1,4]benzodiazepin-2-yl]-[(3S)-3-fluoropyrrolidin-1-yl]methanone] | 1.9 | 979 | 68.5 | 1.84 | 89 | 1.89 | 14.3 | 14.3 |
| CCOC1CN(C(=O)c2cn3c(n2)[C@H](C)N=C(c2ncccc2F)c2c-3ccc(C(F)(F)F)c2Cl)C1 [Example 158, (3-ethoxyazetidin-1-yl)-[(4S)-7-chloro-6-(3-fluoro-2-pyridyl)-4-methyl-8-(trifluoromethyl)-4H-imidazo[1,2-a][1,4]benzodiazepin-2-yl]methanone] | 21.7 | > 30000 | 318.9 | 2.50 | 144 | 2.44 | 94.6 | 94.1 |
| C[C@@H]1N=C(c2c(F)cccc2F)c2c(ccc(C(F)(F)F)c2Cl)-n2nc(C(=O)NCC#N)nc21 [Example 110, (4S)-7-chlor-N-(cyanomethyl)-6-(2,6-difluorophenyl)-4-methyl-8-(trifluoromethyl)-4H-[1,2,4]triazolo[1,5-a][1,4]benzodiazepine-2-carboxamide] | 2.64 | 2480 | 205.1 | 2.31 | 119 | 2.19 | 12.1 | 12.1 |
| C[C@@H]1N=C(c2c(F)cccc2F)c2c(ccc(Cl)c2Cl)-n2nc(N3CC(C#N)C3)nc21 [Example 77, 1-[(4S)-7,8-dichloro-6-(2,6-difluorophenyl)-4-methyl-4H-[1,2,4]triazolo[1,5-a][1,4]benzodiazepin-2-yl]azetidine-3-carbonitrile] | 1 | 279 | 27.2 | 1.44 | 69 | 1.69 | 10.2 | 10.2 |
| C[C@@H]1N=C(c2ncccc2F)c2c(ccc(C(F)(F)F)c2Cl)-n2nc(C(=O)N3CC4(CCOC4)C3)nc21 [Example 120, 6-oxa-2-azaspiro[3.4]octan-2-yl-[(4S)-7-chloro-6-(3-fluoro-2-pyridyl)-4-methyl-8-(trifluoromethyl)-4H-[1,2,4]triazolo[1,5-a][1,4]benzodiazepin-2-yl]methanone] | 8.55 | 5330 | 66.3 | 1.82 | 178 | 2.78 | 80.4 | 80.4 |
| Cc1cn2c(n1)[C@H](C)N=C(c1c(F)cccc1F)c1c-2ccc(C(F)(F)F)c1Cl [Example 148, (4S)-7-chloro-6-(2,6-difluorophenyl)-2,4-dimethyl-8-(trifluoromethyl)-4H-imidazo[1,2-a][1,4]benzodiazepine] | 2.1 | 866 | 84.7 | 1.93 | 73 | 1.73 | 10.2 | 10.2 |
| C[C@@H]1N=C(c2c(F)cccc2F)c2c(ccc(Cl)c2Cl)-n2nc(N3CC(O)C3)nc21 [Example 66, 1-[(4S)-7,8-dichloro-6-(2,6-difluorophenyl)-4-methyl-4H-[1,2,4]triazolo[1,5-a][1,4]benzodiazepin-2-yl]azetidin-3-ol] | 1.24 | 241 | 39.7 | 1.60 | 58 | 1.58 | 6.1 | 6.1 |
| C[C@@H]1N=C(c2c(F)cccc2F)c2c(ccc(Cl)c2Cl)-n2nc(S(N)(=O)=O)nc21 [Example 69, (4S)-7,8-dichloro-6-(2,6-difluorophenyl)-4-methyl-4H-[1,2,4]triazolo[1,5-a][1,4]benzodiazepine-2-sulfonamide] | 0.77 | 1150 | 60.1 | 1.78 | 97 | 1.97 | 19.2 | 19.2 |
| C[C@@H]1N=C(c2c(F)cccc2F)c2c(ccc(Cl)c2Cl)-n2nc(S(C)(=O)=O)nc21 [Example 82, (4S)-7,8-dichloro-6-(2,6-difluorophenyl)-4-methyl-2-methylsulfonyl-4H-[1,2,4]triazolo[1,5-a][1,4]benzodiazepine] | 3.55 | 2130 | 107.3 | 2.03 | 75 | 1.75 | 19.8 | 19.8 |
| C[C@@H]1N=C(c2c(F)cccc2F)c2c(ccc(C(F)(F)F)c2Cl)-n2nc(NC(=O)N3CCS(=O)(=O)CC3)nc21 [Example 131, N-[(4S)-7-chloro-6-(2,6-difluorophenyl)-4-methyl-8-(trifluoromethyl)-4H-[1,2,4]triazolo[1,5-a][1,4]benzodiazepin-2-yl]-1,1-dioxo-1,4-thiazinane-4-carboxamide] | 3.38 | 2430 | 176.5 | 2.25 | 104 | 2.04 | 13.8 | 13.8 |
| OCc1cn2c(n1)CN=C(c1c(F)cccc1F)c1c-2ccc(Br)c1Cl [Example 4, (8-bromo-7-chloro-6-(2,6-difluorophenyl)-4H-benzo[f]imidazo[1,2-a][1,4]diazepin-2-yl)methanol] | 1.14 | 216 | 24.4 | 1.39 | 105 | 2.05 | 8.8 | 8.8 |
